Assay results as given in patent publication EP1608650B1, “PYRENE-LINKED PYRROLO(2,1-C)(1,4)BENZODIAZEPINE DERIVATIVES USEFUL AS ANTICANCER AGENTS” (Council of Scientific and Industrial Research, priority 2003, dated 2004).

Key:
(Lung) NCI-H460 = experiment: In vitro one dose primary anticancer assay (NCI); type: cell-based, human; conditions: one dose at 10^-4 molar concentration
(Breast) MCF7 = experiment: In vitro one dose primary anticancer assay (NCI); type: cell-based, human; conditions: one dose at 10^-4 molar concentration
(CNS) SF-268 = experiment: In vitro one dose primary anticancer assay (NCI); type: cell-based, human; conditions: one dose at 10^-4 molar concentration
human tumour cell lines = experiment: cells
Experimental: (§1) In vitro biological activity studies were carried out at National Cancer Institute (USA).
(§2) For each compound, dose response curves for each cell line were measured at a minimum of five concentrations at 10 fold dilutions. A protocol of 48 h continuous drug exposure was used and a sulforhodamine B (SRB) protein assay was used to estimate cell viability or growth. […]

Breast = conditions: average of six to nine different cancer cell lines, log value
Experimental: as §1, §2
(§3) Each cancer type represents the average of six to nine different cancer cell lines.

CNS = conditions: average of six to nine different cancer cell lines, log value
Experimental: as §1, §2, §3

Colon = conditions: average of six to nine different cancer cell lines, log value
Experimental: as §1, §2, §3

Leukemia = conditions: average of six to nine different cancer cell lines, log value
Experimental: as §1, §2, §3

Melanoma = conditions: average of six to nine different cancer cell lines, log value
Experimental: as §1, §2, §3

Non-small-cell lung = conditions: average of six to nine different cancer cell lines, log value
Experimental: as §1, §2, §3

Ovarian = conditions: average of six to nine different cancer cell lines, log value
Experimental: as §1, §2, §3

Prostate = conditions: average of six to nine different cancer cell lines, log value
Experimental: as §1, §2, §3

Renal = conditions: average of six to nine different cancer cell lines, log value
Experimental: as §1, §2, §3

[1] = system: CNS cancer cell lines (SNB75); conditions: read-out: potency (at the LC50 level)
Experimental: as §1, §2

colon cancer (HCC-2998) = conditions: read-out: potency (at the LC50 level)
Experimental: as §1, §2

leukemia cancer (SR) = conditions: read-out: potency (at the LC50 level)
Experimental: as §1, §2

melanoma cancer (M14) = conditions: read-out: potency (at the LC50 level)
Experimental: as §1, §2

[2] = system: non-small cell lung cancer (NCI-H226); conditions: read-out: potency (at the LC50 level)
Experimental: as §1, §2

prostate cancer (DU-145) = conditions: read-out: potency (at the LC50 level)
Experimental: as §1, §2

renal cancer (A498) = conditions: read-out: potency (at the LC50 level)
Experimental: as §1, §2

Question: How did the “Growth percentages (Lung) NCI-H460” value ((Lung) NCI-H460) turn out when “7-Methoxy-8-[N-(1"-pyrenyl)-butne-4'-carboxamide]-oxy-(11aS)-1,2,3,11a-tetra-hydro-5H-pyrrolo[2,1-c][1,4]benzodiazepin-5-one [Vg]” was run?
Answer: The value was 106.

Question: What about the “Growth percentages (Breast) MCF7” value ((Breast) MCF7) of the same molecule?
Answer: Its value is 72.

Question: And the “Growth percentages (CNS) SF-268” value ((CNS) SF-268)?
Answer: The value was 131.

Question: What does the source list for `COc1cc2c(cc1OCCCC(=O)Nc1ccc3ccc4cccc5ccc1c3c45)N=C[C@@H]1CCCN1C2=O` [Ve, 7-Methoxy-8-[N-(1"-pyrenyl)-propane-3'-carboxamide]-oxy-(11aS)-1,2,3,11atetra-hydro-5H-pyrrolo[2,1-c][1,4]benzodiazepin-5-one]?
Answer: Growth percentages (Lung) NCI-H460 ((Lung) NCI-H460): 11; Growth percentages (Breast) MCF7 ((Breast) MCF7): 31; Growth percentages (CNS) SF-268 ((CNS) SF-268): 70; GI50 (human tumour cell lines; Homo sapiens, 48 h, read-out: Log10 GI50 (converted)): 17.8 nM; Log10 LC50 (human tumour cell lines; mean graph midpoint (MG_MID), 48 h continuous drug exposure, 50% cell death): -4.74; Log10 TGI (human tumour cell lines; mean graph midpoint (MG_MID), 48 h continuous drug exposure, total cell growth inhibition): -6.89; Log LC50 (concentration in mol/L causing 50% lethality) (Breast): > -4.00 mol/L; Log LC50 (concentration in mol/L causing 50% lethality) (CNS): -5.23 mol/L; Log LC50 (concentration in mol/L causing 50% lethality) (Colon): -5.00 mol/L; Log LC50 (concentration in mol/L causing 50% lethality) (Leukemia): -4.65 mol/L; Log LC50 (concentration in mol/L causing 50% lethality) (Melanoma): -5.62 mol/L; Log LC50 (concentration in mol/L causing 50% lethality) (Non-small-cell lung): -4.67 mol/L; Log LC50 (concentration in mol/L causing 50% lethality) (Ovarian): > -4.00 mol/L; Log LC50 (concentration in mol/L causing 50% lethality) (Prostate): -5.30 mol/L; Log LC50 (concentration in mol/L causing 50% lethality) (Renal): -5.05 mol/L; CC50 [1]: 10 µM; CC50 (colon cancer (HCC-2998)): 10 nM; CC50 (leukemia cancer (SR)): 100 nM; CC50 (melanoma cancer (M14)): 100 nM; CC50 [2]: 10 nM; CC50 (prostate cancer (DU-145)): 10 µM; CC50 (renal cancer (A498)): 100 nM
